Test results: patent US12077534B2, “Aza-heterobicyclic inhibitors of MAT2A and methods of use for treating cancer” (Les Laboratoires Servier SAS, priority 2018, dated 2024)

Columns and labels:
HCT116 MTAP+/+ = test: Inhibition of cellular proliferation (Cell Titer Glo), HCT116 MTAP+/+; assay type: cell-based; settings: Homo sapiens, HCT-116, 96 h, 4 days, read-out: 4 Day Relative Growth Inhibition (MTAP +/+)
Summary of the method: (§1)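 Isogenic HCT116 MTAP+/+ and MTAP−/− cells treated 24 h after plating with 10-point 3-fold dilutions, then grown 4 days at 37 °C/5% CO2. ATP content read by Cell Titer Glo luminescence, blank-subtracted and normalized to 0.2% DMSO control, plotted as percent proliferation change versus log molar concentration.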

HCT116 MTAP−/− = test: Inhibition of cellular proliferation (Cell Titer Glo), HCT116 MTAP-/-; assay type: cell-based; settings: Homo sapiens, HCT-116, 96 h, 4 days, read-out: 4 Day Relative Growth Inhibition (MTAP −/−)
Summary of the method: as §1

[1] = system: MAT2A activity (SAM) in HCT116 cells with deleted MTAP gene; test: Cellular assay of target engagement (SAM) by LC-MS/MS; assay type: cell-based; settings: Homo sapiens, HCT-116; HCT116 MTAP −/−, 72 hrs; read-out: Cell 72 h SAM Inhibition (MTAP −/−)
Summary of the method: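 HCT116 MTAP-deleted cells treated with 10-point 3-fold DMSO serial dilutions of compound for 72 hrs at 37° C. Cells lysed in cold 80% methanol/acetic acid extraction buffer with d3-SAM internal standard; SAM quantified by LC-MS/MS (MRM m/z 399.2→250.1).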

MAT2A homodimer = target: T1, MAT2A homodimer (Homo sapiens, UniProt P31153); test: MAT2A biochemical assay (phosphate release, PiColorLock Gold); settings: recombinant MAT2A homodimer, 60 min pre-incubation, 25° C.; read-out: Enzyme Inhibition
T1 construct: inferred from Ni sepharose purification and imidazole elution; made in house; host or cells: SF9 insect cells, recombinant baculovirus (Bac to Bac, pFASTBAC1)
T1 sequence (P31153 whole entry): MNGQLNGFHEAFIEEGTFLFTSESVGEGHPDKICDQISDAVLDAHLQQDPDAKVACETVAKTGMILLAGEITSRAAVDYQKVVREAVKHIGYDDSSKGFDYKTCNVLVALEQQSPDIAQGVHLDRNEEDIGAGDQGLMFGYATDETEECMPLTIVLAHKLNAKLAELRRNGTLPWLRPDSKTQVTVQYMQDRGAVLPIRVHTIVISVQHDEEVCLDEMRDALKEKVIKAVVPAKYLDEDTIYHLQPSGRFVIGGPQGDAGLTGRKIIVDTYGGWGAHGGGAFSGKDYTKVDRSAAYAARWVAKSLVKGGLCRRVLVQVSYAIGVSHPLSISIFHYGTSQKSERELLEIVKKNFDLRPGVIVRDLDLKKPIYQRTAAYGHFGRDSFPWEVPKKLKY
Summary of the method: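 Baculovirus/Sf9-expressed, Ni-purified MAT2A homodimer (4 µg/mL in pH 8.0 Tris/KCl/MgCl2 buffer) preincubated 60 min at 25 °C with compound (2% DMSO final). Substrate mix of 500 µM ATP and 400 µM L-methionine added; 60 min at 25 °C; released phosphate quantified colorimetrically against a phosphate standard curve.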

Compound | IC50 (HCT116 MTAP+/+) [nM] | IC50 (HCT116 MTAP−/−) [nM] | IC50 [1] [nM] | IC50 (MAT2A homodimer) [nM]
[2H]C([2H])([2H])Oc1ccc(-c2c(=O)n(-c3ccc4nn(C)cc4c3)nc3ccc(OCCF)nc23)cc1 [Example 157] | ≥ 1000 | 100 to 1000 | 100 to 1000 | < 100
CCSc1ccc2nn(-c3ccc4nn(C)cc4c3)c(=O)c(-c3ccc(OC(F)F)cc3)c2n1 [Example 158] | ≥ 1000 | < 100 | < 100 | < 100
CCNc1ccc2nn(-c3ccc4nn(C)cc4c3)c(=O)c(-c3ccc(OC(F)F)cc3)c2n1 [Example 159] | ≥ 1000 | < 100 | < 100 | < 100
Cn1cc2cc(-n3nc4ccc(NCC(F)(F)F)nc4c(-c4ccc(OC(F)F)cc4)c3=O)ccc2n1 [Example 160] | ≥ 1000 | < 100 | < 100 | < 100
[2H]C([2H])([2H])C([2H])([2H])Oc1ccc2nn(-c3ccc4nn(C)cc4c3)c(=O)c(-c3ccc(OC(F)F)cc3)c2n1 [Example 161] | ≥ 1000 | < 100 | < 100 | < 100
Cn1cc2cc(-n3nc4ccc(NC5CC5)nc4c(-c4ccc(OC(F)F)cc4)c3=O)ccc2n1 [Example 162] | ≥ 1000 | < 100 | < 100 | < 100
Cn1cc2cc(-n3nc4ccc(N5CCCC5)nc4c(-c4ccc(OC(F)F)cc4)c3=O)ccc2n1 [Example 163] | ≥ 1000 | ≥ 1000 | > 1000 | < 100
Cn1cc2cc(-n3nc4ccc(SCC(F)(F)F)nc4c(-c4ccc(OC(F)F)cc4)c3=O)ccc2n1 [Example 165] | 100 to 1000 | < 100 | < 100 | < 100
Cc1c2cc(-n3nc4ccc(OCC(F)F)nc4c(-c4ccc(OC(F)F)cc4)c3=O)ccc2nn1C [Example 166, 6-(2,2-difluoroethoxy)-4-(4-(difluoromethoxy)phenyl)-2-(2,3-dimethyl-2H-indazol-5-yl)pyrido[3,2-c]pyridazin-3(2H)-one] | ≥ 1000 | < 100 | < 100 | < 100
Cn1cnc2ccc(-n3nc4ccc(OCC(F)F)nc4c(-c4ccc(OC(F)F)cc4)c3=O)cc21 [Example 167, 6-(2,2-difluoroethoxy)-4-(4-(difluoromethoxy)phenyl)-2-(1-methyl-1H-benzo[d]imidazol-6-yl)pyrido[3,2-c]pyridazin-3(2H)-one] | ≥ 1000 | < 100 | < 100 | < 100
CCOc1ccc2nn(-c3ccc4ncccc4c3)c(=O)c(-c3ccc(Cl)cc3)c2n1 [Example 168] | ≥ 1000 | 100 to 1000 | < 100 | < 100
O=c1c(-c2ccc(OC(F)F)cc2)c2nc(OCC(F)F)ccc2nn1-c1ccc2ncsc2c1 [Example 169] | < 100 | < 100 | < 100 | < 100
O=c1c(-c2ccc(OC(F)F)cc2)c2nc(OCC(F)F)ccc2nn1-c1ccc2nccn2c1 [Example 170] | ≥ 1000 | 100 to 1000 | < 100 | < 100
COc1c2cc(-n3nc4ccc(OCC(F)F)nc4c(-c4ccc(OC(F)F)cc4)c3=O)ccc2nn1C [Example 171] | ≥ 1000 | < 100 | < 100 | < 100
COc1nc2ccc(-n3nc4ccc(OCC(F)F)nc4c(-c4ccc(OC(F)F)cc4)c3=O)cc2n1C [Example 172] | ≥ 1000 | < 100 | < 100 | < 100
Cc1c2cc(-n3nc4ccc(OCC(F)F)nc4c(-c4ccc(Cl)cc4)c3=O)ccc2nn1C [Example 173] | 100 to 1000 | < 100 | < 100 | < 100
COc1c2cc(-n3nc4ccc(OCC(F)F)nc4c(-c4ccc(Cl)cc4)c3=O)ccc2nn1C [Example 174] | ≥ 1000 | < 100 | < 100 | < 100
[2H]C([2H])([2H])Oc1c2cc(-n3nc4ccc(OCC(F)F)nc4c(-c4ccc(OC(F)F)cc4)c3=O)ccc2nn1C [Example 175] | 100 to 1000 | < 100 | < 100 | < 100
O=c1c(-c2ccc(OC(F)F)cc2)c2nc(OCC(F)F)ccc2nn1-c1ccc2nnccc2c1 [Example 176] | 100 to 1000 | 100 to 1000 | < 100 | < 100

Compound | IC50 (HCT116 MTAP+/+) [nM] | IC50 (HCT116 MTAP−/−) [nM] | IC50 [1] [nM] | IC50 (MAT2A homodimer) [nM]
O=c1c(-c2ccc(OC(F)F)cc2)c2nc(OCC(F)F)ccc2nn1-c1ccc2c(c1)OCCO2 [Example 177] | 100 to 1000 | < 100 | < 100 | < 100
O=c1c(-c2ccc(OC(F)F)cc2)c2nc(OCC(F)F)ccc2nn1-c1ccc2c(c1)CCO2 [Example 178] | 100 to 1000 | < 100 | < 100 | < 100
O=c1c(-c2ccc(OC(F)F)cc2)c2nc(OCC(F)F)ccc2nn1-c1ccc2ncncc2c1 [Example 179] | ≥ 1000 | 100 to 1000 | < 100 | < 100
CN1CCOc2ccc(-n3nc4ccc(OCC(F)F)nc4c(-c4ccc(OC(F)F)cc4)c3=O)cc21 [Example 180] | ≥ 1000 | < 100 | < 100 | < 100
Cn1nc2ccc(-n3nc4ccc(OCC(F)F)nc4c(-c4ccc(OC(F)F)cc4)c3=O)cc2n1 [Example 182] | 100 to 1000 | < 100 | < 100 | < 100
O=c1c(-c2ccc(OC(F)F)cc2)c2nc(OCC(F)F)ccc2nn1-c1ccc2ncccc2c1 [Example 183] | 100 to 1000 | < 100 | < 100 | < 100
O=c1c(-c2ccc(OC(F)F)cc2)c2nc(OCC(F)F)ccc2nn1-c1ccc2nncn2c1 [Example 184] | ≥ 1000 | 100 to 1000 | < 100 | < 100
COC1CC=C(n2nc3ccc(OCC(F)F)nc3c(-c3ccc(OC(F)F)cc3)c2=O)CC1 (centres unmarked) [Example 187] | ≥ 1000 | ≥ 1000 | 100 to 1000 | < 100
O=c1c(-c2ccc(OC(F)F)cc2)c2nc(OCC(F)F)ccc2nn1-c1ccncc1 [Example 188] | ≥ 1000 | 100 to 1000 | 100 to 1000 | < 100
CNC(=O)c1ccc(-n2nc3ccc(OCC(F)F)nc3c(-c3ccc(OC(F)F)cc3)c2=O)cc1 [Example 189] | ≥ 1000 | 100 to 1000 | 100 to 1000 | < 100
O=c1c(-c2ccc(OC(F)F)cc2)c2nc(OCC(F)F)ccc2nn1-c1ccc(F)cc1 [Example 191] | ≥ 1000 | ≥ 1000 | 100 to 1000 | 100 to 1000
O=c1c(-c2ccc(OC(F)F)cc2)c2nc(OCC(F)F)ccc2nn1-c1ccc2nccnc2c1 [Example 192] | 100 to 1000 | 100 to 1000 | < 100 | < 100
O=c1c(-c2ccc(OC(F)F)cc2)c2nc(OCC(F)F)ccc2nn1-c1cn[nH]c1 [Example 193] | ≥ 1000 | 100 to 1000 | 100 to 1000 | < 100
Cn1cc2cc(-n3nc4cc(F)c(OCC(F)F)nc4c(-c4ccc(OC(F)F)cc4)c3=O)ccc2n1 [Example 194, 6-(2,2-difluoroethoxy)-4-(4-(difluoromethoxy)phenyl)-7-fluoro-2-(2-methyl-2H-indazol-5-yl)pyrido[3,2-c]pyridazin-3(2H)-one] | ≥ 1000 | < 100 | 100 to 1000 | < 100
CCOc1nc2c(-c3ccc(OC(F)F)cc3)c(=O)n(-c3ccc4nn(C)cc4c3)nc2cc1F [Example 195] | ≥ 1000 | ≥ 1000 | < 100 | < 100
CCNc1nc2c(-c3ccc(OC(F)F)cc3)c(=O)n(-c3ccc4nn(C)cc4c3)nc2cc1F [Example 196] | ≥ 1000 | < 100 | < 100 | < 100
Cn1cc2cc(-n3nc4cc(F)c(NCC(F)(F)F)nc4c(-c4ccc(OC(F)F)cc4)c3=O)ccc2n1 [Example 197] | ≥ 1000 | < 100 | < 100 | < 100
CCOc1ccc2nn(-c3ccc4nn(C)cc4c3)c(=O)c(-c3ccc(Br)cc3)c2n1 [Example 198, 4-(4-bromophenyl)-6-ethoxy-2-(2-methyl-2H-indazol-5-yl)pyrido[3,2-c]pyridazin-3(2H)-one] | ≥ 1000 | < 100 | < 100 | < 100
CC(C)Oc1ccc2nn(-c3ccc4nn(C)cc4c3)c(=O)c(-c3ccc(Br)cc3)c2n1 [Example 199, 4-(4-bromophenyl)-6-isopropoxy-2-(2-methyl-2H-indazol-5-yl)pyrido[3,2-c]pyridazin-3(2H)-one] | ≥ 1000 | < 100 | < 100 | < 100
